This passage reports Ki and EC50 results from US7888329B2, “Substituted aryl piperidinylalkynyladenosines as A2AR agonists” (PGxHealth, LLC, priority 2006, dated 2011).

pEC50, pKi: −log10 of the molar value.

One experiment concerns the target T1, human A1 AR (Homo sapiens, UniProt P30542).
T1 construct: expressed in transfected cells; membranes
T1 sequence (P30542 1-326): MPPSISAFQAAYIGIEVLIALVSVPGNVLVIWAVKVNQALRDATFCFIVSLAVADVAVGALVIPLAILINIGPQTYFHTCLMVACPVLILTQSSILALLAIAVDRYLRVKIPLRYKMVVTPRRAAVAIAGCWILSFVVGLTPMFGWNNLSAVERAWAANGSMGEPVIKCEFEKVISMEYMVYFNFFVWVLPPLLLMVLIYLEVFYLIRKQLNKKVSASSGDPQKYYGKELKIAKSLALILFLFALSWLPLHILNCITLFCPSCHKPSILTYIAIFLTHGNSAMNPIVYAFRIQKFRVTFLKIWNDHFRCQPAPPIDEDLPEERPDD
The experiment can be described thus: Radioligand competition binding with 125I-ABA, membranes of CHO K1 cells stably expressing the receptor. To be noted: Ki derived from IC50, class symbols. For orientation: In a radioligand displacement assay an active substance lowers the binding of a labelled ligand.

Experiment [1] concerns the target T2, recombinant human A2A receptors (Homo sapiens, UniProt P29274).
T2 construct: expressed in transfected cells; host or cells: Sf9 insect cells infected with virus; membranes
Kind of experiment: Radioligand competition binding with 125I-APE or 125I-ZM241385, Sf9 cell membranes. To be noted: 125I-APE or 125I-ZM241385, Sf9 membranes; class symbols. Here is the method:
Cell culture and membrane preparation. Sf9 cells were cultured in Grace's medium supplemented with 10% fetal bovine serum, 2.5 μg/ml amphotericin B and 50 μg/ml gentamycin in an atmosphere of 50% N2/50% O2. Viral infection was performed at a density of 2.5×10^6 cells/mL with a multiplicity of infection of two for each virus used. Infected cells were harvested 3 days post-infection and washed twice in insect PBS (PBS pH 6.3). Cells were then resuspended in lysis buffer (20 mM HEPES pH 7.5, 150 mM NaCl, 3 mM MgCl2, 1 mM α-mercaptoethanol (BME), 5 μg/mL leupeptin, 5 μg/mL pepstatin A, 1 μg/mL aprotinin, and 0.1 mM PMSF) and snap frozen for storage at −80° C. Cells were thawed on ice, brought to 30 mL total volume in lysis buffer, and burst by N2 cavitation (600 psi for 20 minutes). A low-speed centrifugation was performed to remove any unlysed cells (1000×g for 10 minutes), followed by a high-speed centrifugation (17,000×g for 30 minutes). The pellet from the final centrifugation was homogenized in buffer containing 20 mM HEPES pH 8, 1100 mM NaCl, 1% glycerol, 2 μg/mL leupeptin, 2 μg/mL pepstatin A, 2 μg/mL Aprotinin, 0.1 mM PMSF, and 10 μM GDP using a small glass homogenizer followed by passage through a 26 gauge needle. Membranes were aliquoted, snap frozen in liquid N2, and stored at −80° C.
Radioligand Binding Assays. […] Binding experiments were performed in triplicate with 5 μg (A2A) or 25 μg (A1 and A3) membrane protein in a total volume of 00.1 mL HE buffer (20 mM HEPES and 1 mM EDTA) with 1 U/mL adenosine deaminase and 5 mM MgCl2 with or without 50 μM GTPγS. Membranes were incubated with radioligands at room temperature for three hours (for agonists) or two hours (for antagonists) in Millipore Multiscreen® 96-well GF/C filter plates and assays were terminated by rapid filtration on a cell harvester (Brandel, Gaithersburg, Md.) followed by 4×150 μl washes over 30 seconds with ice cold 10 mM Tris-HCl, pH 7.4, 10 mM MgCl2. Nonspecific binding was measured in the presence of 50 μM NECA.

In the next experiment the target is T3, human A3 AR (Homo sapiens, UniProt P0DMS8).
T3 construct: expressed in transfected cells; membranes
T3 sequence (P0DMS8 1-318): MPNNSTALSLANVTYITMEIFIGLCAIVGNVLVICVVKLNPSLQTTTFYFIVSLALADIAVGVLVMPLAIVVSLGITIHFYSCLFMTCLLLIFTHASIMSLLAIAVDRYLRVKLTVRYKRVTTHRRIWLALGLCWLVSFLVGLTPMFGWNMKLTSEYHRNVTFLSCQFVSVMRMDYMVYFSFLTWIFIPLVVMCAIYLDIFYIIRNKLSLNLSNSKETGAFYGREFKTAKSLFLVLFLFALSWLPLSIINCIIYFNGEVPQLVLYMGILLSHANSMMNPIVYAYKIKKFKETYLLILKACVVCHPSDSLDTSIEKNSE
The experiment can be described thus: Radioligand competition binding with 125I-ABA, membranes of HEK 293 cells stably expressing the receptor. To be noted: Ki derived from IC50, class symbols. Here is the method:
Cell culture and membrane preparation. Sf9 cells were cultured in Grace's medium supplemented with 10% fetal bovine serum, 2.5 μg/ml amphotericin B and 50 μg/ml gentamycin in an atmosphere of 50% N2/50% O2. Viral infection was performed at a density of 2.5×10^6 cells/mL with a multiplicity of infection of two for each virus used. Infected cells were harvested 3 days post-infection and washed twice in insect PBS (PBS pH 6.3). Cells were then resuspended in lysis buffer (20 mM HEPES pH 7.5, 150 mM NaCl, 3 mM MgCl2, 1 mM α-mercaptoethanol (BME), 5 μg/mL leupeptin, 5 μg/mL pepstatin A, 1 μg/mL aprotinin, and 0.1 mM PMSF) and snap frozen for storage at −80° C. Cells were thawed on ice, brought to 30 mL total volume in lysis buffer, and burst by N2 cavitation (600 psi for 20 minutes). A low-speed centrifugation was performed to remove any unlysed cells (1000×g for 10 minutes), followed by a high-speed centrifugation (17,000×g for 30 minutes). The pellet from the final centrifugation was homogenized in buffer containing 20 mM HEPES pH 8, 1100 mM NaCl, 1% glycerol, 2 μg/mL leupeptin, 2 μg/mL pepstatin A, 2 μg/mL Aprotinin, 0.1 mM PMSF, and 10 μM GDP using a small glass homogenizer followed by passage through a 26 gauge needle. Membranes were aliquoted, snap frozen in liquid N2, and stored at −80° C. Membranes from cells stably expressing the human A1 AR (CHO K1 cells) or A3 AR (HEK 293 cells) were prepared as described (Robeva et al., 1996).
Radioligand Binding Assays. Radioligand binding to recombinant human A2A receptors in Sf9 cell membranes was performed using either the radiolabeled agonist, ^125I-APE (Luthin et al., 1995) or the radiolabeled antagonist, ^125I-ZM241385 (^125I-ZM). To detect the high affinity, GTPγS-sensitive state of A1 and A3 AR, we used the agonist, ^125I-ABA (Linden et al., 1985; Linden et al., 1993). Binding experiments were performed in triplicate with 5 μg (A2A) or 25 μg (A1 and A3) membrane protein in a total volume of 00.1 mL HE buffer (20 mM HEPES and 1 mM EDTA) with 1 U/mL adenosine deaminase and 5 mM MgCl2 with or without 50 μM GTPγS. Membranes were incubated with radioligands at room temperature for three hours (for agonists) or two hours (for antagonists) in Millipore Multiscreen® 96-well GF/C filter plates and assays were terminated by rapid filtration on a cell harvester (Brandel, Gaithersburg, Md.) followed by 4×150 μl washes over 30 seconds with ice cold 10 mM Tris-HCl, pH 7.4, 10 mM MgCl2. Nonspecific binding was measured in the presence of 50 μM NECA. Competition binding assays were performed as described (Robeva et al., 1996) using 0.5-1 nM ^125I-APE, ^125I-ZM241385, or ^125I-ABA. […] The Ki values for competing compound binding to a single site were derived from IC50 values with correction for radioligand and competing compound depletion as described previously (Linden, 1982).

Experiment [2] has as its system Purified human neutrophils. Kind of experiment: Luminol enhanced chemiluminescence (neutrophil oxidative activity), fMLP stimulated. In kind it is cell-based. To be noted: Homo sapiens, Neutrophil; read-out: Functional. The source says: Chemiluminescence Methods: Luminol enhanced chemiluminescence, a measure of neutrophil oxidative activity, is dependent upon both superoxide production and mobilization of the granule enzyme myeloperoxidase. The light is emitted from unstable high-energy oxygen species such as hypochlorous acid and singlet oxygen generated by activated neutrophils.
Purified human neutrophils (2×10^6/ml) suspended in Hanks balanced salt solution containing 0.1% human serum albumin (HA), adenosine deaminase (1 U/mL) and rolipram (100 nM) were incubated (37 C) in a water bath for 15 min with or without rhTNF (10 U/ml). Following incubation 100 µL aliquots of the PMN were transferred to wells (White walled clear bottom 96 well tissue culture plates Costar #3670; 2 wells/condition) containing […] and luminol (final concentration 100M) with or without adenosine agonist (final agonist concentrations 0.01-1000 nM). The plate was incubated 5 min (37 C) and then fMLP (50 l in HA; final concentration […]) was added to all wells.
Peak chemiluminescence was determined with a Victor 1420 Multilabel Counter in the chemiluminescence mode using the Wallac Workstation software. Data are presented as peak chemiluminescence as percent of activity in the absence of an adenosine agonist. The EC50 was determined using PRISM software. All compounds were tested with PMNs from three separate donors.

T2 sequence (P29274 whole entry): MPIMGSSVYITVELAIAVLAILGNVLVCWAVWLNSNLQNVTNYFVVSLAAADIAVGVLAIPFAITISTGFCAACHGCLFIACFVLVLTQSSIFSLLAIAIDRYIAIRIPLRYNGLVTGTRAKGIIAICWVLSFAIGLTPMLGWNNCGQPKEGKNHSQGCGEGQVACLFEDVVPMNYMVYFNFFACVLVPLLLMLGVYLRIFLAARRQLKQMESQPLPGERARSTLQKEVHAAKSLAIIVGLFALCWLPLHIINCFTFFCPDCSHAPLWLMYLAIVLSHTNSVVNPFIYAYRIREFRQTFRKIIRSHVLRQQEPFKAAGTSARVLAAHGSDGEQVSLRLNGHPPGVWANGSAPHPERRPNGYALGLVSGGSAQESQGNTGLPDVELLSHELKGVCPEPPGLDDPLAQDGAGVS

One may read the pKi as the Ki on a negative log10 scale, so that one unit is a factor of ten. With `Nc1nc(C#CCC2CCN(C(=O)Nc3ccc(F)cc3)CC2)nc2c1ncn2[C@@H]1O[C@H](CO)C(O)[C@@H]1O` (stereo partly shown) [Compound 44], the negative-log Ki (pKi) at human A1 AR was greater than 7.00; in experiment [1], greater than 8.00; at human A3 AR, greater than 7.00. Besides, the pEC50 in experiment [2] is less than 7.00.

With `CCNC(=O)[C@H]1O[C@@H](n2cnc3c(N)nc(C#CCC4CCN(C(=O)Oc5ccc(Cl)c(Cl)c5)CC4)nc32)[C@@H](O)C1O` (stereo partly shown) [Compound 49, N-Ethyl 2-{3-[1-(3,4-dichlorophenoxycarbonyl)-4-piperidinyl]-1-propyn-1-yl}adenosine-5′-uronamide], the negative logarithm of the Ki (pKi) on human A1 AR was greater than 7.00; in experiment [1] it was greater than 9.00; at human A3 AR it was greater than 8.00. The pEC50 in experiment [2] was greater than 9.00.

For the compound `COC(=O)c1ccc(OC(=O)N2CCC(CC#Cc3nc(N)c4ncn([C@@H]5O[C@H](C(=O)NC6CC6)C(O)[C@@H]5O)c4n3)CC2)cc1` (stereo partly shown) [Compound 9, N-Cyclopropyl 2-{3-[1-(4-methoxycarbonylphenoxycarbanoyl)-4-piperidinyl]-1-propyn-1-yl}adenosine-5′-uronamide], the pKi on human A1 AR is greater than 7.00; in experiment [1] it was greater than 9.00; at human A3 AR it was greater than 7.00. For the same compound, in experiment [2], the pEC50 was greater than 8.00.

Consider `Nc1nc(C#CCC2CCN(C(=O)Nc3cccc(Cl)c3)CC2)nc2c1ncn2[C@@H]1O[C@H](C(=O)NC2CC2)C(O)[C@@H]1O` (stereo partly shown) [Compound 43, N-Cyclopropyl 2-{3-[1-(3-chlorophenyloxycarboxymidyl)-4-piperidinyl]-1-propyn-1-yl}adenosine-5′-uronamide], for which the values for the pKi (on human A1 AR; in experiment [1]; at human A3 AR) were greater than 7.00, greater than 8.00 and less than 7.00, respectively. Further, the pEC50 in experiment [2] was greater than 7.00.

As for `Nc1nc(C#CCC2CCN(C(=O)OCc3ccccc3)CC2)nc2c1ncn2[C@@H]1O[C@H](C(=O)NC2CC2)C(O)[C@@H]1O` (stereo partly shown) [Compound 2, N-Cyclopropyl 2-{3-[1-(benzyloxycarbonyl)-4-piperidinyl]-1-propyn-1-yl}adenosine-5′-uronamide, reference compound], the negative-log Ki (pKi) on human A1 AR was greater than 7.00; in experiment [1], greater than 9.00; on human A3 AR, greater than 7.00. Besides, the pEC50 in experiment [2] is greater than 9.00.

Take `Nc1nc(C#CCC2CCN(C(=O)OCCOCc3ccccc3)CC2)nc2c1ncn2[C@@H]1O[C@H](C(=O)NC2CC2)C(O)[C@@H]1O` (stereo partly shown) [Compound 5, N-Cyclopropyl 2-{3-[1-(2-(benzyloxy)ethoxycarbonoyl)-4-piperidinyl]-1-propyn-1-yl}adenosine-5′-uronamide]: the pKi at human A1 AR is greater than 7.00; in experiment [1], greater than 9.00; at human A3 AR it was greater than 7.00. Also, in experiment [2], the pEC50 is greater than 8.00.

Take `Cc1ccc(OC(=O)N2CCC(CC#Cc3nc(N)c4ncn([C@@H]5O[C@H](CO)[C@@H](O)[C@H]5O)c4n3)CC2)cc1C` [Compound 53, 2-{3-[1-((3,4-Dimethyl)phenoxycarbanoyl)piperidin-4-yl]propyn-1-yl}adenosine]: the pKi at human A1 AR was greater than 7.00; in experiment [1], greater than 9.00; on human A3 AR, greater than 7.00. In addition, the pEC50 in experiment [2] is greater than 8.00.

Turning to `Nc1nc(C#CCC2CCN(C(=O)Oc3ccc(F)cc3)CC2)nc2c1ncn2[C@@H]1O[C@H](C(=O)NC2CC2)C(O)[C@@H]1O` (stereo partly shown) [Compound 8, N-Cyclopropyl 2-{3-[1-(4-fluorophenoxycarbonyl)-4-piperidinyl]-1-propyn-1-yl}adenosine-5′-uronamide], the results for the pKi (on human A1 AR; in experiment [1]; at human A3 AR) were greater than 7.00, greater than 9.00 and greater than 7.00, respectively. Further, the pEC50 in experiment [2] is greater than 9.00.

As for `CCNC(=O)[C@H]1O[C@@H](n2cnc3c(N)nc(C#CCC4CCN(C(=O)Oc5ccc(OC)cc5)CC4)nc32)[C@@H](O)C1O` (stereo partly shown) [Compound 15, N-Ethyl 2-{3-[1-(4-methoxyphenoxycarbonyl)-4-piperidinyl]-1-propyn-1-yl}adenosine-5′-uronamide], the figures for the pKi (on human A1 AR; in experiment [1]; at human A3 AR) were greater than 7.00, greater than 9.00 and greater than 8.00, respectively. In addition, the pEC50 in experiment [2] was greater than 9.00.

As to `Nc1nc(C#CCC2CCN(C(=O)Oc3cccc(C(F)(F)F)c3)CC2)nc2c1ncn2[C@@H]1O[C@H](C(=O)NC2CC2)C(O)[C@@H]1O` (stereo partly shown) [Compound 3, N-Cyclopropyl 2-{3-[1-(3-(trifluoromethyl)phenoxycarbonyl)-4-piperidinyl]-1-propyn-1-yl}adenosine-5′-uronamide], the pKi at human A1 AR was greater than 7.00; in experiment [1], greater than 9.00; at human A3 AR it was greater than 7.00. Besides, the pEC50 in experiment [2] was greater than 8.00.
